The text below walks through data of patent US20230372365A1, “METHODS OF TREATING FIBROMYALGIA WITH NEUROACTIVE STEROIDS” (priority 2020, published 2023).

In test [1] the test system is GABAA receptor subtypes. Put plainly: FLIPR calcium flux, all 18 subtypes taken together. The test is classed as cell-based. Conditions: 18 subtypes tested. On the procedure:
(§1) Cells expressing the indicated GABAA receptor subtype were exposed to gamma-aminobutyric acid in the presence of varying concentrations of either CV-10155 or SPNC-019, calcium flux was measured using a fluorometric imaging plate reader (FLIPR), and EC50 values for compounds were determined.
The results further indicate that the isomeric purity of compositions containing compounds of Formula (I) greatly impacts the utility of such compositions as therapeutic agents.
In general terms: A change in cytosolic calcium serves as a functional read-out for many receptors and channels.

Test [2] deals with T1, α4β3δ GABAA receptor (Homo sapiens, UniProt O14764+P28472+P48169). Put plainly: FLIPR calcium flux, modulation of GABA response. On the set-up: expressed in transfected cells. The test is classed as cell-based. Particulars: comparison of Example 1 data. On the procedure:
as §1

Test [3] has as its target picrotoxin binding site of GABAA receptors. Particulars: membranes from cortices of rat brains; read-out: IC50 in the TBPS displacement assay; cited from earlier work.
For test [4], the target named is T1, α4β3δ GABAA receptor. On the set-up: expressed in transfected cells; host or cells: CHO cells, transiently transfected. Particulars: 10 μM steroid, GABA 2 μM (EC20), CHO cells; cited from earlier work.
In test [5] the target is T2, α1β2γ2 GABAA receptors (Homo sapiens, UniProt P14867+P18507+P47870).
T2 construct: expressed in transfected cells; host or cells: LTK cells, stably transfected
T2 sequence (P14867 28-456): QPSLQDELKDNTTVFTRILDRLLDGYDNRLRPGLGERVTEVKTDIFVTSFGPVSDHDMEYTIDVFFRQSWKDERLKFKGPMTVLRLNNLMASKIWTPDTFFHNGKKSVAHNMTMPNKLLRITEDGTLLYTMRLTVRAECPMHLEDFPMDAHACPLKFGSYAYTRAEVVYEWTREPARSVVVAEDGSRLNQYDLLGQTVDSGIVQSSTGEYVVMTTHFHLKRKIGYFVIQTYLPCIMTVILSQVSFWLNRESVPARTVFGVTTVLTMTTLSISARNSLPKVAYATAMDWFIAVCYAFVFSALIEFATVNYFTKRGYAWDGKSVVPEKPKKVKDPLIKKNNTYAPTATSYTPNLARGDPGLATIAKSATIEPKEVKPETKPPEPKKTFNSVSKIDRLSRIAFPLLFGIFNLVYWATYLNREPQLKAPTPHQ
T2 sequence (P47870 25-512 limits assumed): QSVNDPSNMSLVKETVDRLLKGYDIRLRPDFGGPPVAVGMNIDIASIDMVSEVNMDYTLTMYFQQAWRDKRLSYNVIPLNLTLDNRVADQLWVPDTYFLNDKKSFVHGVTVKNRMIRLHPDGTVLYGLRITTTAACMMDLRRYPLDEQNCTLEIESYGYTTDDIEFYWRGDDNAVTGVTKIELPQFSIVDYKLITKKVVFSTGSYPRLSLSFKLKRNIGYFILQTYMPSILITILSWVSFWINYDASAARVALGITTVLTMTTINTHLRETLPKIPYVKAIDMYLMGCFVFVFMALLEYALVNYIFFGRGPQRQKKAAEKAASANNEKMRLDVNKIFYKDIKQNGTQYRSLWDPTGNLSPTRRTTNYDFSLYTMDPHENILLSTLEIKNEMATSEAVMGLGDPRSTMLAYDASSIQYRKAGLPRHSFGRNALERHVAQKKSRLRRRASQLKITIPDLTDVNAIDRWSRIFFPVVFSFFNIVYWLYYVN
T2 sequence (P18507 40-475): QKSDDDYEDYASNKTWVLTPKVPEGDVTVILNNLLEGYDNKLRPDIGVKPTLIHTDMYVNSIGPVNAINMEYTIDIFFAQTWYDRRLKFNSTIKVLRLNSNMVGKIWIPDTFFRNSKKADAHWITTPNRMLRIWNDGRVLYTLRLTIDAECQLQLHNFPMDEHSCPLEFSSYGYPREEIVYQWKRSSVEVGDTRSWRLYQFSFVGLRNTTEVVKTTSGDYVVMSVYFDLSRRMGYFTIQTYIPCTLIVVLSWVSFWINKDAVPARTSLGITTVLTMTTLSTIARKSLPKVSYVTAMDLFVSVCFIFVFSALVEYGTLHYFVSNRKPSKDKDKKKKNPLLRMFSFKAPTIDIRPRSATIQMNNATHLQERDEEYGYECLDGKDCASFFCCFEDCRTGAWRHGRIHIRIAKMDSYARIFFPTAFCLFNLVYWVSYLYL
Particulars: 10 μM steroid, GABA 2 μM (EC20), LTK cells; cited from earlier work.

The term IC50 denotes the midpoint of a concentration-inhibition curve.

A value given as a limit tells only on which side of the number the result lay.

T1 sequence (P48169 36-554): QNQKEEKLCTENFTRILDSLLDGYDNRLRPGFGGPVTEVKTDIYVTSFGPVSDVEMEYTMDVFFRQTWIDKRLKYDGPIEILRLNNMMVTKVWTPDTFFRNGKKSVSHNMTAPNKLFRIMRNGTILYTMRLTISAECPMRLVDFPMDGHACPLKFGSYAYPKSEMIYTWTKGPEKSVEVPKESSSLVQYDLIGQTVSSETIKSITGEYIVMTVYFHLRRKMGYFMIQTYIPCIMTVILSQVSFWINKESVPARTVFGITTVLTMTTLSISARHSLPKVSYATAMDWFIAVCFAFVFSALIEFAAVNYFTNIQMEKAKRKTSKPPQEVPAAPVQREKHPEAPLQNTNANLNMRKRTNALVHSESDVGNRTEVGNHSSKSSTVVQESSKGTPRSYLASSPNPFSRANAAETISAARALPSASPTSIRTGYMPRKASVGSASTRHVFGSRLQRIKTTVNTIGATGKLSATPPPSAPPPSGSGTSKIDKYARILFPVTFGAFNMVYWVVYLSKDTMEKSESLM
T1 sequence (P28472 26-473): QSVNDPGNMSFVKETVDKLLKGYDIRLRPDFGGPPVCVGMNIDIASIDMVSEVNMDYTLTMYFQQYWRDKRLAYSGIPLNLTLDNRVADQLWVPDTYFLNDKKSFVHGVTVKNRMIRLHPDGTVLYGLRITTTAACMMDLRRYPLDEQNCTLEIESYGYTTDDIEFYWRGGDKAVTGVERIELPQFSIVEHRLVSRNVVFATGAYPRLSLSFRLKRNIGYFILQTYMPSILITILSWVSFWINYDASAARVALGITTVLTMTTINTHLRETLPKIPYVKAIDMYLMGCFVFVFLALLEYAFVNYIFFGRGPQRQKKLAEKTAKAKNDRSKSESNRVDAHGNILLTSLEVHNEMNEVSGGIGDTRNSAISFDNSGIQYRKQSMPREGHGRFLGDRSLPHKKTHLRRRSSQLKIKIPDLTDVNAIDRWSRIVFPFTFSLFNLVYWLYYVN
T1 sequence (O14764 25-452): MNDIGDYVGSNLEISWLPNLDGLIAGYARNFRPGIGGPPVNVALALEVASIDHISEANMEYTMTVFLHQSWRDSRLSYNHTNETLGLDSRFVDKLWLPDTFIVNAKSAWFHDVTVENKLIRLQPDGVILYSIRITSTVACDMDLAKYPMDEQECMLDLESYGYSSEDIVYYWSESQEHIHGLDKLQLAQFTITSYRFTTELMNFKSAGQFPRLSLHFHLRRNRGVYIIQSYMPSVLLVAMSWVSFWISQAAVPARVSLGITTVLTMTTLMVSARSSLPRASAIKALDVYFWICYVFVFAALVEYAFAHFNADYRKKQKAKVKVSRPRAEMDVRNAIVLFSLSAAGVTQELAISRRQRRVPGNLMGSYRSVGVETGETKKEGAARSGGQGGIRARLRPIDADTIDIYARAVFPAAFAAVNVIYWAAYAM

In the case of `C[C@@]1(O)CC[C@@]2(C)[C@@H](CC[C@@H]3[C@@H]2CC[C@]2(C)[C@@H](C(=O)Cn4cc(C#N)cn4)CC[C@@H]32)C1` [CV-10155, 1-[2-[(3R,5S,8R,9S,10S,13S,14S,17S)-3-hydroxy-3,10,13-trimethyl-1,2,4,5,6,7,8,9,11,12,14,15,16,17-tetradecahydrocyclopenta[a]phenanthren-17-yl]-2-oxoethyl]pyrazole-4-carbonitrile], the “modulating activity across the GABAA receptor subtypes tested” value in test [1] is recorded as “some level of positive allosteric modulating activity in all of the GABAA receptor subtypes tested”. The “preferential modulation of α4β3δ compared to α1β2γ2 GABAA receptors” value in test [2] was “preferentially modulate”; in test [2] (listed as Formula (I)) it was “substantially more active”.
`C[C@@]1(O)CC[C@@]2(C)[C@@H](CC[C@@H]3[C@@H]2CC[C@]2(C)[C@@H](C(=O)Cn4ccc(C#N)n4)CC[C@@H]32)C1` [Compound 121]: the IC50 in test [3] was 10 to 50 nM. The “efficacy (relative potentiation of GABA-mediated conductance)” value in test [4] and in test [5] was over 500% in each case.
With `C[C@]1(O)CC[C@@]2(C)[C@@H](CC[C@@H]3[C@@H]2CC[C@]2(C)[C@@H](C(=O)Cn4cc(C#N)cn4)CC[C@@H]32)C1` [SPNC-019], in test [1], the “modulating activity across the GABAA receptor subtypes tested” value is “no modulating activity in 15 of the 18 GABAA receptor subtypes tested”.
Take `C[C@@]1(O)CC[C@@]2(C)[C@H](CC[C@@H]3[C@@H]2CC[C@]2(C)[C@@H](C(=O)Cn4cc(C#N)cn4)CC[C@@H]32)C1` [Compound 10]: the IC50 in test [3] was under 10 nM.
